Experimental data as given in article PMC10311661, “In Silico Discovery of 5′-Modified 7-Deoxy-7-ethynyl-4′-thioadenosine as a HASPIN Inhibitor and Its Synergistic Anticancer Effect with the PLK1 Inhibitor” (ACS Central Science, 2023).

Tests used:
Test in all cases: KINOMEscan (scanMAX) competition binding at […], less than […] of control
Details in all cases: read-out: % of control at 100 nM
CLK2 = CLK2 (Homo sapiens, UniProt P49760)
DYRK1A = DYRK1A (Homo sapiens, UniProt Q13627)
MEK5 = molecular target: T1, MEK5 (Homo sapiens, UniProt Q13163)
T1 construct: gene MAP2K5
T1 sequence (Q13163 1-448): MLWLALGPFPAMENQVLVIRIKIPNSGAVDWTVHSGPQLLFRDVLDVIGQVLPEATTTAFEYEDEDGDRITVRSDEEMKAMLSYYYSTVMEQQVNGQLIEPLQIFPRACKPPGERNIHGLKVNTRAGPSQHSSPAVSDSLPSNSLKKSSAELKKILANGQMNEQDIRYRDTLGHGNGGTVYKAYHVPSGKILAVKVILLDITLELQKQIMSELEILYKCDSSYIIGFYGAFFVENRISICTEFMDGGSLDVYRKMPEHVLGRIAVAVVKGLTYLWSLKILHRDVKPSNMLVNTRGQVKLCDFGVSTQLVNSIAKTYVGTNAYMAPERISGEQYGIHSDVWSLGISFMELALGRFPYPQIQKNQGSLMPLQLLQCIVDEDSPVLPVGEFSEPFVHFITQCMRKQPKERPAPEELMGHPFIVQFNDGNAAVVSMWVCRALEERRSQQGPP

Measured: remaining binding at 0.1 µM

CLK2, sequence (P49760 whole entry): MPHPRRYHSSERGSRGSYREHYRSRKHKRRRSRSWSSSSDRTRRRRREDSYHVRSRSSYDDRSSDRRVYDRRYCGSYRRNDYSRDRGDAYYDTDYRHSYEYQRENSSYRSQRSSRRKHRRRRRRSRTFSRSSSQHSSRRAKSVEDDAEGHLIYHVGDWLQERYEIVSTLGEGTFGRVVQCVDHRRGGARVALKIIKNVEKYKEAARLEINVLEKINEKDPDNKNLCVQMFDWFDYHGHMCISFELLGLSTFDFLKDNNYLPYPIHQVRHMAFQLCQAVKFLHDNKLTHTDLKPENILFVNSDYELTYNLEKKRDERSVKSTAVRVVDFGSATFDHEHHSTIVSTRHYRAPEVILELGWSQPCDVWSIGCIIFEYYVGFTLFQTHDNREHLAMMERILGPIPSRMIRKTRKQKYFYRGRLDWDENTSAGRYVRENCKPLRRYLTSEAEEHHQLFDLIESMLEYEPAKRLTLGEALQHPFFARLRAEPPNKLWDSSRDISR

C#Cc1cn([C@@H]2S[C@H](CN=[N+]=[N-])[C@@H](O)[C@H]2O)c2ncnc(N)c12 [compound 7, LJ4827]
< 1%: all assays above
